pIC50: −log10 of the molar value. Like-named read-outs stand apart in the source and are kept apart here.
Key:
heparanase = target: T1, heparanase (Homo sapiens, UniProt Q9Y251); assay: AGA*IA assay (fondaparinux cleavage, WST-1 colorimetric) for heparanase inhibition; type: biochemical
T1 sequence (Q9Y251 158-543 limits assumed): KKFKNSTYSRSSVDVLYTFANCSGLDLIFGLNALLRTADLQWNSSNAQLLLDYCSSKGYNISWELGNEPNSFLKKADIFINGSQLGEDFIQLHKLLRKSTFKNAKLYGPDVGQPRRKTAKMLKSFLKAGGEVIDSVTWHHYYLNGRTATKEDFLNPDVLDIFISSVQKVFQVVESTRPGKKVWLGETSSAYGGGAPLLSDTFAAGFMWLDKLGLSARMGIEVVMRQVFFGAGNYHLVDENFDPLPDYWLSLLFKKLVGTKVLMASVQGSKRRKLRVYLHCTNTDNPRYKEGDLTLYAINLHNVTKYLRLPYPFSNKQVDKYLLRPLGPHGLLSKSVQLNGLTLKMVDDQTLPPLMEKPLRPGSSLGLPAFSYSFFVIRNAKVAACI
T1 sequence (Q9Y251 36-109 limits assumed): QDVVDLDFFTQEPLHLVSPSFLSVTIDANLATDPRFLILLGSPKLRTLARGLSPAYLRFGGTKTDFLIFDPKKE
Method: All compounds were tested in a simple, accurate and robust microplate assay based on the cleavage of the synthetic heparin fragment, the pentasaccharide Fondaparinux (AGA*IA). This assay was originally developed by Hammond and coworkers [Hammond E, Li CP, Ferro V. Development of a colorimetric assay for heparanase activity suitable for kinetic analysis and inhibitor screening. […] Fondaparinux is cleaved by heparanase to generate a reducing disaccharide, which can be quantitatively measured via a colorimetric or a fluorescence assay, the last by the fluorescent sensor polymer-H [Schiemann S, Lühn S, Alban S. Development of both colorimetric and fluorescence heparinase activity assays using fondaparinux as substrate.
The assay measures the appearance of the disaccharide product of heparanase-catalyzed fondaparinux cleavage colorimetrically using the tetrazolium salt WST-1. Assay was essentially performed as described with minor modifications. Briefly, NUNC ELISA 96-well plates were pre-treated with a solution of 4% BSA (bovin serum albumin) in phosphate-buffered saline containing 0.05% Tween 20 (PBST), for 2 h at 37°C, then washed three times with PBST, dried by tapping on paper towel and stored at -20°C. Before use, once again, the plates were washed with PBST.
Then, the absorbance at 560 nm was measured through a microplate reader (Victor 3, Perkin Elmer).
Finally, the measurements were corrected by subtracting both the reagent background and the inner absorbance value of test compound. Table 2. IC50 value in AGA*IA assay, versus heparanase inhibition of selected compounds of present invention.

[1] = tested on: HT1080 (human fibrosarcoma); assay: SRB Cell Cytotoxicity Assay, 72h; type: cell-based; conditions: Conc. 2.5 µM, N.I.: Not Inhibition
Method: (§4) SRB Cell Cytotoxicity Assay is an assay based upon the quantitative staining of cellular proteins by sulforhodamine B (SRB). […] Sulforhodamine B is an anionic aminoxanthene dye that forms an electrostatic complex with the basic amino acid residues of proteins under moderately acid conditions, which provides a sensitive linear response.
(§5) Inhibition of cell proliferation was then measured by the classical colorimetric SRB Cell Cytotoxicity assay. Absorbance was measured by spectrophotometer at a wavelength of 510 nm and cell proliferation was determined as percent with respect to control cells (cells treated with the vehicle alone). EC50 values were then determined by GraphPad Prism.

[2] = tested on: U87MG (human glioblastoma astrocytoma); assay: SRB Cell Cytotoxicity Assay, 72h; type: cell-based; conditions: Conc. 2.5 µM, N.I.: Not Inhibition
Method: as §4, §5

[3] = tested on: U2OS (human osteosarcoma); assay: Matrigel cell invasion assay; type: cell-based
Method: (§1) Heparanase inhibitors were then evaluated for their activity on the invasive potential of HT1080 (human fibrosarcoma), U87MG (human glioblastoma astrocytoma) and U2OS (human osteosarcoma) human cell lines, using the Matrigel cell invasion assay which allows to assess the cell invasion ability of malignant and normal cells.
(§2) Invasion assay was performed using BioCoat cell culture inserts (BioCoat 8.0µm PET Membrane 24 Well Permeable Supports, Corning). Filters were coated with 100 µl of 300 µg/ml Matrigel dissolved in coating buffer (0.01M Tris pH 8.0, 0.7% NaCl) (Becton-Dickinson Sciences). DMEM (Dulbecco's Modified Eagle's Medium) containing 5% FBS was added to the lower chambers. Cells were pre-treated with heparanase inhibitors for 24 h, detached and added to the upper chambers in media containing the inhibitors. Cells were allowed to invade for 24 h at 37°C in a CO2 incubator and then unmigrated cells were removed from the upper chamber with a cotton swab. The invading cells were fixed, stained with 0.1% crystal violet for 10 min at room temperature, photographed and counted under inverted microscope.
(§3) Test compounds were analyzed at fixed concentration for several fields, in duplicates. Activity of test compounds was compared to the reference compound. Activity of most interesting compound was confirmed in a second cell invasion assay. Data were expressed as the percent invasion with respect to cell migration through uncoated insert membrane.

[4] = tested on: HT1080 (human fibrosarcoma); assay: Matrigel cell invasion assay; type: cell-based
Method: as §1, §2, §3

[5] = tested on: U87MG (human glioblastoma astrocytoma); assay: Matrigel cell invasion assay; type: cell-based
Method: as §1, §2, §3

[6] = tested on: U2OS (human osteosarcoma); assay: SRB Cell Cytotoxicity Assay, 72h; type: cell-based; conditions: Conc. 2.5 µM, N.I.: Not Inhibition
Method: as §4, §5

FGF-1 = assay: Real-Time Quantitative PCR of mRNA gene expression in HT1080 cells; conditions: 24 h, Conc 1.0 uM
Method: (§6) To evaluate the effect of heparanase inhibitors on the tumor transcription of genes encoding for proangiogenic factors, such as FGF1/2, VEGF, MMP-9, HSPE-1, the relative mRNA levels were analyzed by quantitative Real-Time Quantitative PCR.
(§7) To perform the assay, HT1080 (human fibrosarcoma) cells were cultured in complete medium containing 10%FCS (fetal calf serum). Cells were plated in 24-well plates and treated at fixed concentration (i.e., highest non-toxic concentration) of test compounds. After 24 h, cells were detached, collected and total RNA extracted by RNeasy Mini Kit (QIAGEN). Following reverse transcription step, FGF1/2, VEGF, MMP-9, HSPE-1 mRNA levels, were quantified by qPCR using the advanced Universal SYBR Green Supermix (Bio Rad) and ABI PRISM 7900HT Thermal Cycler System (Perkin Elmer), according to the manufacturer's instructions. […] Relative levels of RNA were calculated using the ddCt method. Standard curve and sample data were run in duplicate.

FGF-2 = assay: as above; conditions: 24 h, Conc 1.0 uM
Method: as §6, §7

VEGF = assay: as above; conditions: 24 h, Conc 1.0 uM
Method: as §6, §7

MMP-9 = assay: as above; conditions: 24 h, Conc 1.0 uM
Method: as §6, §7

[7] = Table 1, fluorinated vs non-fluorinated analogues
[8] = Table 3, fluorinated vs non-fluorinated derivatives, read-out: AGAIA assay IC50

## COc1ccc(C(=O)Nc2ccc(CNc3ccc(-c4nc5cc(CC(=O)O)ccc5[nH]4)cc3F)cc2)cc1Br [Compound 10, 2-(2-(4-((4-(3-bromo-4-methoxybenzamido)benzyl)amino)-3-fluorophenyl)-1H-benzo[d]imidazol-5-yl)acetic acid]
heparanase; [7]
  pIC50: 5.54
heparanase; Table 2, class symbols
  pIC50: 4.70 to 6.00
heparanase; [8]
  pIC50: 5.54

## COc1ccc(C(=O)Nc2ccc(CNc3ccc(-c4nc5cc(CC(=O)NCC(=O)O)ccc5[nH]4)cc3F)cc2)cc1Br [Compound 15, 2-(2-(2-(4-((4-(3-bromo-4-methoxybenzamido)benzyl)amino)-3-fluorophenyl)-1H-benzo[d]imidazol-5-yl)acetamido)acetic acid]
[1]
  Concentration of test compounds at which the cell growth is inhibited by 50 % HT1080: N. I.
heparanase; Table 2, class symbols
  pIC50: 6.00 to 6.30
[2]
  Concentration of test compounds at which the cell growth is inhibited by 50 % U87MG: N. I.
[3]; Conc. 2.5µM
  Invasion Assay U2OS: + (+ : < 50%)
[4]; Conc. 2.5µM
  Invasion Assay HT1080: + (+ : < 50%)
[5]; Conc. 2.5µM
  Invasion Assay U87MG: + (+ : < 50%)
[6]
  Concentration of test compounds at which the cell growth is inhibited by 50 % U2OS: N. I.

## COc1ccc(C(=O)Nc2ccc(CNc3ccc(-c4nc5ccccc5[nH]4)cc3F)cc2)cc1Br [Compound 22]
FGF-1
  Gene Expression (% mRNA vs. control) FGF-1: ∼ 77%
FGF-2
  Gene Expression (% mRNA vs. control) FGF-2: ∼ 71%
VEGF
  Gene Expression (% mRNA vs. control) VEGF: ∼ 67%
MMP-9
  Gene Expression (% mRNA vs. control) MMP-9: ∼ 52%
[3]; Conc. 1.1µM
  Invasion Assay U2OS: ++ (++: 50-90%)
[4]; Conc. 1.1µM
  Invasion Assay HT1080: ++ (++: 50-90%)
[5]; Conc. 1.1µM
  Invasion Assay U87MG: ++ (++: 50-90%)

## COc1ccc(C(=O)Nc2ccc(CNc3ccc(-c4nc5ccccc5[nH]4)cc3)cc2)cc1Br [SST0408AA1, reference compound]
FGF-1
  Gene Expression (% mRNA vs. control) FGF-1: ∼ 97%
FGF-2
  Gene Expression (% mRNA vs. control) FGF-2: ∼ 92%
VEGF
  Gene Expression (% mRNA vs. control) VEGF: ∼ 72%
MMP-9
  Gene Expression (% mRNA vs. control) MMP-9: ∼ 69%

## COc1ccc(C(=O)Nc2ccc(CNc3ccc(-c4nc5cc(CC(=O)O)ccc5[nH]4)cc3)cc2)cc1Br [SST0914AA1, 2-(2-(4-((4-(3-bromo-4-methoxybenzamido)benzyl)amino)-phenyl)-1H-benzo[d]imidazol-5-yl)acetic acid, reference compound]
heparanase; [7]
  pIC50: < 5.00
heparanase; [8]
  pIC50: < 5.00

## COc1ccc(C(=O)Nc2ccc(CNc3ccc(-c4nc5cc(CC(=O)O)ccc5o4)cc3)cc2)cc1Br [SST0915AA1, 2-(2-(4-((4-(3-bromo-4-methoxybenzamido)benzyl)amino)phenyl)benzo[d]oxazol-5-yl)acetic acid, reference compound]
heparanase; [7]
  pIC50: < 5.00
heparanase; [8]
  pIC50: < 5.00

## Cc1ccc(C(=O)Nc2ccc(S(=O)(=O)O)c3cc(S(=O)(=O)O)cc(S(=O)(=O)O)c23)cc1NC(=O)c1cccc(NC(=O)Nc2cccc(C(=O)Nc3cc(C(=O)Nc4ccc(S(=O)(=O)O)c5cc(S(=O)(=O)O)cc(S(=O)(=O)O)c45)ccc3C)c2)c1 [Suramin, reference compound]
[3]; Conc. 10µM
  Invasion Assay U2OS: -
[4]; Conc. 10µM
  Invasion Assay HT1080: + (+ : < 50%)
[5]; Conc. 10µM
  Invasion Assay U87MG: -

Source: patent EP3381908A1, “2-(4-(4-(BROMO-METHOXYBENZAMIDO)BENZYLAMINO)PHENYL)BENZAZOLE DERIVATIVES AND THEIR USE AS ANTI-HEPARANASE” (Leadiant Biosciences SA, priority 2017, dated 2018)
